{
  "source": "PubChem BioAssay AID1259409",
  "about": "(Chemical Carcinogenesis Research Information System (CCRIS), 2018)",
  "origin": "cited, not measured here",
  "test_system": "rodent chemically induced tumor inhibition, incidence and multiplicity",
  "assay": "CCRIS tumor inhibitor studies",
  "conditions": "for tumour outcome (control, treated, inhibition, significance): Dose [Inhibitor]: 0, Route [Inhibitor]: ORAL, Strain/Sex: F344/MALE",
  "note": "“And” between values parts separate entries of the source, which are not always exact repeats. Equal entries are not always repeated.",
  "data": [
    {"molecule": "CC1(C)O[C@H]2CC(=O)OC[C@]23[C@H]2CC[C@@]4(C)[C@H](c5ccoc5)OC(=O)[C@H]5O[C@]54[C@]2(C)C(=O)C[C@@H]13", "values": [
      {"measurement": "tumour outcome (control, treated, inhibition, significance)", "setting": "Carcinogen: AZOXYMETHANE, 25843-45-2, 0.05% IN DIET FOR 35 WK BEGINNING 1 WK POST CARCINOGEN LAST DOSE (STUDY DURATION: 38 WK), Species: RAT, Target Tissue: Type of Lesion: COLON: ADENOCARCINOMA, Dose [Carcinogen]: 20 MG/KG BW 1/WK FOR 2 WK", "result": "18/25 (72%), 1/16 (6%), 92%, p=0.00003 and 18/25 (72%), 2/16 (13%), 82%, p=0.0002"}
    ]},
    {"molecule": "CN1CCN(c2c(F)cc3c(=O)c(C(=O)O)cn(CCF)c3c2F)CC1", "values": [
      {"measurement": "outcome", "setting": "Carcinogen: N-BUTYL-N-(4-HYDROXYBUTYL)NITROSAMINE [3817-11-6], Dose [Inhibitor]: 10 MG ONCE/D FOR 1 WK BEGINNING 1 WK PRIOR TO FIRST CARCINOGEN DOSE (STUDY DURATION: 13 WK), Route [Inhibitor]: INTRAGASTRIC, Species: MOUSE, Strain/Sex: C57BL/6/FEMALE, Target Tissue: Type of Lesion: URINARY BLADDER: CARCINOMA IN SITU, Dose [Carcinogen]: 0.05% IN DRINKING WATER FOR 8 WK BEGINNING IMMEDIATELY POST LAST INHIBITOR DOSE (STUDY DURATION: 13 WK), Promoter: NONE", "result": "1, 0, not significant"},
      {"measurement": "outcome", "setting": "Carcinogen: N-BUTYL-N-(4-HYDROXYBUTYL)NITROSAMINE [3817-11-6], Dose [Inhibitor]: 10 MG ONCE/D FOR 1 WK BEGINNING 1 WK PRIOR TO FIRST CARCINOGEN DOSE (STUDY DURATION: 13 WK), Route [Inhibitor]: INTRAGASTRIC, Species: MOUSE, Strain/Sex: C57BL/6/FEMALE, Target Tissue: Type of Lesion: URINARY BLADDER: INVASIVE CARCINOMA, Dose [Carcinogen]: 0.05% IN DRINKING WATER FOR 8 WK BEGINNING IMMEDIATELY POST LAST INHIBITOR DOSE (STUDY DURATION: 13 WK), Promoter: NONE", "result": "0, 0, not significant"},
      {"measurement": "outcome", "setting": "Carcinogen: N-BUTYL-N-(4-HYDROXYBUTYL)NITROSAMINE [3817-11-6], Dose [Inhibitor]: 10 MG ONCE/D FOR 1 WK BEGINNING 1 WK PRIOR TO FIRST CARCINOGEN DOSE (STUDY DURATION: 17 WK), Route [Inhibitor]: INTRAGASTRIC, Species: MOUSE, Strain/Sex: C57BL/6/FEMALE, Target Tissue: Type of Lesion: URINARY BLADDER: CARCINOMA IN SITU, Dose [Carcinogen]: 0.05% IN DRINKING WATER FOR 8 WK BEGINNING IMMEDIATELY POST LAST INHIBITOR DOSE (STUDY DURATION: 17 WK), Promoter: NONE", "result": "1, 0, not significant"},
      {"measurement": "outcome", "setting": "Carcinogen: N-BUTYL-N-(4-HYDROXYBUTYL)NITROSAMINE [3817-11-6], Dose [Inhibitor]: 10 MG ONCE/D FOR 1 WK BEGINNING 1 WK PRIOR TO FIRST CARCINOGEN DOSE (STUDY DURATION: 17 WK), Route [Inhibitor]: INTRAGASTRIC, Species: MOUSE, Strain/Sex: C57BL/6/FEMALE, Target Tissue: Type of Lesion: URINARY BLADDER: INVASIVE CARCINOMA, Dose [Carcinogen]: 0.05% IN DRINKING WATER FOR 8 WK BEGINNING IMMEDIATELY POST LAST INHIBITOR DOSE (STUDY DURATION: 17 WK), Promoter: NONE", "result": "1, 0, not significant"},
      {"measurement": "outcome", "setting": "Carcinogen: N-BUTYL-N-(4-HYDROXYBUTYL)NITROSAMINE [3817-11-6], Dose [Inhibitor]: 10 MG ONCE/D FOR 1 WK BEGINNING 1 WK PRIOR TO FIRST CARCINOGEN DOSE (STUDY DURATION: 21 WK), Route [Inhibitor]: INTRAGASTRIC, Species: MOUSE, Strain/Sex: C57BL/6/FEMALE, Target Tissue: Type of Lesion: URINARY BLADDER: CARCINOMA IN SITU, Dose [Carcinogen]: 0.05% IN DRINKING WATER FOR 12 WK BEGINNING IMMEDIATELY POST LAST INHIBITOR DOSE (STUDY DURATION: 21 WK), Promoter: NONE", "result": "0, 1, not significant"},
      {"measurement": "outcome", "setting": "Carcinogen: N-BUTYL-N-(4-HYDROXYBUTYL)NITROSAMINE [3817-11-6], Dose [Inhibitor]: 10 MG ONCE/D FOR 1 WK BEGINNING 1 WK PRIOR TO FIRST CARCINOGEN DOSE (STUDY DURATION: 21 WK), Route [Inhibitor]: INTRAGASTRIC, Species: MOUSE, Strain/Sex: C57BL/6/FEMALE, Target Tissue: Type of Lesion: URINARY BLADDER: INVASIVE CARCINOMA, Dose [Carcinogen]: 0.05% IN DRINKING WATER FOR 12 WK BEGINNING IMMEDIATELY POST LAST INHIBITOR DOSE (STUDY DURATION: 21 WK), Promoter: NONE", "result": "9, 6, not significant"},
      {"measurement": "outcome", "setting": "Carcinogen: N-BUTYL-N-(4-HYDROXYBUTYL)NITROSAMINE [3817-11-6], Dose [Inhibitor]: 50 MG ONCE/D FOR 1 WK BEGINNING 1 WK PRIOR TO FIRST CARCINOGEN DOSE (STUDY DURATION: 13 WK), Route [Inhibitor]: INTRAGASTRIC, Species: MOUSE, Strain/Sex: C57BL/6/FEMALE, Target Tissue: Type of Lesion: URINARY BLADDER: CARCINOMA IN SITU, Dose [Carcinogen]: 0.05% IN DRINKING WATER FOR 8 WK BEGINNING IMMEDIATELY POST LAST INHIBITOR DOSE (STUDY DURATION: 13 WK), Promoter: NONE", "result": "1, 0, not significant"},
      {"measurement": "outcome", "setting": "Carcinogen: N-BUTYL-N-(4-HYDROXYBUTYL)NITROSAMINE [3817-11-6], Dose [Inhibitor]: 50 MG ONCE/D FOR 1 WK BEGINNING 1 WK PRIOR TO FIRST CARCINOGEN DOSE (STUDY DURATION: 13 WK), Route [Inhibitor]: INTRAGASTRIC, Species: MOUSE, Strain/Sex: C57BL/6/FEMALE, Target Tissue: Type of Lesion: URINARY BLADDER: INVASIVE CARCINOMA, Dose [Carcinogen]: 0.05% IN DRINKING WATER FOR 8 WK BEGINNING IMMEDIATELY POST LAST INHIBITOR DOSE (STUDY DURATION: 13 WK), Promoter: NONE", "result": "0, 0, not significant"},
      {"measurement": "outcome", "setting": "Carcinogen: N-BUTYL-N-(4-HYDROXYBUTYL)NITROSAMINE [3817-11-6], Dose [Inhibitor]: 50 MG ONCE/D FOR 1 WK BEGINNING 1 WK PRIOR TO FIRST CARCINOGEN DOSE (STUDY DURATION: 17 WK), Route [Inhibitor]: INTRAGASTRIC, Species: MOUSE, Strain/Sex: C57BL/6/FEMALE, Target Tissue: Type of Lesion: URINARY BLADDER: CARCINOMA IN SITU, Dose [Carcinogen]: 0.05% IN DRINKING WATER FOR 8 WK BEGINNING IMMEDIATELY POST LAST INHIBITOR DOSE (STUDY DURATION: 17 WK), Promoter: NONE", "result": "1, 0, not significant"},
      {"measurement": "outcome", "setting": "Carcinogen: N-BUTYL-N-(4-HYDROXYBUTYL)NITROSAMINE [3817-11-6], Dose [Inhibitor]: 50 MG ONCE/D FOR 1 WK BEGINNING 1 WK PRIOR TO FIRST CARCINOGEN DOSE (STUDY DURATION: 17 WK), Route [Inhibitor]: INTRAGASTRIC, Species: MOUSE, Strain/Sex: C57BL/6/FEMALE, Target Tissue: Type of Lesion: URINARY BLADDER: INVASIVE CARCINOMA, Dose [Carcinogen]: 0.05% IN DRINKING WATER FOR 8 WK BEGINNING IMMEDIATELY POST LAST INHIBITOR DOSE (STUDY DURATION: 17 WK), Promoter: NONE", "result": "1, 0, not significant"},
      {"measurement": "outcome", "setting": "Carcinogen: N-BUTYL-N-(4-HYDROXYBUTYL)NITROSAMINE [3817-11-6], Dose [Inhibitor]: 50 MG ONCE/D FOR 1 WK BEGINNING 1 WK PRIOR TO FIRST CARCINOGEN DOSE (STUDY DURATION: 21 WK), Route [Inhibitor]: INTRAGASTRIC, Species: MOUSE, Strain/Sex: C57BL/6/FEMALE, Target Tissue: Type of Lesion: URINARY BLADDER: CARCINOMA IN SITU, Dose [Carcinogen]: 0.05% IN DRINKING WATER FOR 12 WK BEGINNING IMMEDIATELY POST LAST INHIBITOR DOSE (STUDY DURATION: 21 WK), Promoter: NONE", "result": "0, 2, not significant"},
      {"measurement": "outcome", "setting": "Carcinogen: N-BUTYL-N-(4-HYDROXYBUTYL)NITROSAMINE [3817-11-6], Dose [Inhibitor]: 50 MG ONCE/D FOR 1 WK BEGINNING 1 WK PRIOR TO FIRST CARCINOGEN DOSE (STUDY DURATION: 21 WK), Route [Inhibitor]: INTRAGASTRIC, Species: MOUSE, Strain/Sex: C57BL/6/FEMALE, Target Tissue: Type of Lesion: URINARY BLADDER: INVASIVE CARCINOMA, Dose [Carcinogen]: 0.05% IN DRINKING WATER FOR 12 WK BEGINNING IMMEDIATELY POST LAST INHIBITOR DOSE (STUDY DURATION: 21 WK), Promoter: NONE", "result": "9, 5, not significant"}
    ]},
    {"molecule": "O=S(=O)([O-])[O-].O=S(=O)([O-])[O-].O=S(=O)([O-])[O-].[Mo]", "values": [
      {"measurement": "tumour outcome (control, treated, inhibition, significance)", "setting": "Carcinogen: N-METHYL-N-BENZYLNITROSAMINE, 937-40-6, 2 PPM IN DIET FOR 1 WK PRIOR TO CARCINOGEN (STUDY DURATION: 25 WK), Species: RAT, Target Tissue: Type of Lesion: ESOPHAGUS: CARCINOMA, Dose [Carcinogen]: 2.5 MG/KG 1/WK FOR 20 WK", "result": "30/41 (73%), 20/45 (44%), 40%, p<0.01"}
    ]},
    {"molecule": "[K+]", "values": [
      {"measurement": "outcome", "setting": "Carcinogen: N-METHYL-N-NITROSOUREA [684-93-5], Dose [Inhibitor]: 0.05% IN DRINKING WATER, 2 WKS BEFORE CARCINOGEN AND FOR 26 WKS AFTER, Route [Inhibitor]: DRINKING WATER, Species: RAT, Strain/Sex: SPRAGUE-DAWLEY/FEMALE, Target Tissue: Type of Lesion: MAMMARY GLAND: CARCINOMA, Dose [Carcinogen]: 50 MG/KG BW ONCE AT 7 WKS OF AGE (IN SALINE SOLUTION)", "result": "8/11 (73%) vs 10/11 (94%) at 16 wks"}
    ]}
  ]
}
